Columns and labels:
PC-3 cells [1] = assay: β-catenin target protein expression, western blot; type: cell-based, human; conditions: 24 h
Method: Inhibitory phosphorylation of GSK3β was evaluated through western blotting. […] Whole-cell lysates were subjected to western blotting with the indicated antibodies. FIGS. 11J-11K show the comparison of basal activities of the Akt/GSK3β axis between PC-3 and DU145 cells. […] The results are shown as the mean±SEM from at least three independent experiments (*p<0.05, **p<0.01, ***p<0.001 vs. control group; #p<0.05, ##p<0.01, and ###p<0.001 vs. relevant control).
(§1) The cells were incubated in lysis buffer for 10 min at 4° C., scraped off, incubated on ice for an additional 10 min and then centrifuged at 17,000 g for 30 min at 4° C. Protein samples were electrophoresed on SDS-PAGE gels, transferred to PVDF membranes and blocked with 5% fat-free milk in PBS for 30 min at room temperature. Immunoblotting was performed overnight with primary antibodies in PBS at 4° C., followed by incubation with HRP-conjugated secondary antibodies for 1 h at room temperature. Bound antibodies will be measured using an ECL reagent and exposed to a photographic film. In the immunoprecipitation assay, cell lysates were immunoprecipitated with 1 μg of antibody and A/G agarose beads overnight at 4° C. After washing the precipitated beads three times with 1 mL ice-cold cell lysis buffer, bound immune complexes were separated by 10% SDS-PAGE and analyzed with immunoblotting.

PC-3 cells [2] = assay: PC-3 SCID mouse model; type: in vivo, mice; conditions: oral, 50 mg/kg q.d., 31 days
Method: PC-3 cells (1×10^7 cells) were injected subcutaneously into the flanks of 7-week-old male SCID mice and treated with vehicle or compound k (50 mg/kg) q.d. for 31 days. […] Tumors were excised from each mouse after a 31-day treatment. […] The length is represented by the scale bar as indicated.
as §1
Tissue sections underwent dewaxing and rehydration. Antigen retrieval was performed by autoclaving the slides in Trilogy solution (Cell Marque, Hot Springs, AR) at 121° C. for 10 min. The slides were blocked with 3% H2O2 and 5% fetal bovine serum, incubated with primary antibodies at 4° C. overnight, and then treated with polymer-HRP reagent (Dako Cytomation, Glostrup, Denmark). activity Peroxidase was visualized using diamino-benzidine tetrahydrochloride solution (DAKO), and sections were counterstained with hematoxylin. Dark brown nuclear staining was defined as positive, no staining was defined as negative.

A549 cells [3] = assay: Nuclear p-Smad3 T179 and RNA polymerase II pS2/S5 after TGF-β1, fractionation and western blot; type: cell-based, human; conditions: compound k 5 μM, senexin A 5 μM, pirfenidone 1 mM; TGF-β1 10 ng/ml 3 h
Method: FIGS. 8A-8B show the inhibitory effects of cellular distributions of TGF-β1-induced p-Smad3 T179, RNA polymerase II pS2/S5, and Smad3 after treatment with compound k. Human alveolar epithelial A549 cells were incubated with compound k (5 μM), senexin A (5 μM), or pirfenidone (1 mM) for 1 h, followed by stimulation with TGF-β1 (10 ng/ml) for 3 h. Protein expressions in the cytoplasmic and nuclear fractions were subjected to a Western blot analysis using the indicated antibodies. α-Tubulin and histone H3 served as loading controls for the cytoplasmic and nuclear fractions, respectively. Results are shown as the mean±SEM of three independent experiments. **p<0.01 and ***p<0.001 compared to the control group; #p<0.05 and ##p<0.01 compared to the TGF-β1-treated group.
Cells (106) were incubated for 10 min at 4° C. in lysis buffer (20 mM HEPES at pH 7.4, 2 mM EGTA, 50 mM β-glycerophosphate, 0.1% Triton X-100, 10% glycerol, 1 mM DTT, 1 μg/mL of leupeptin, 5 μg/mL of aprotinin, 1 mM phenylmethylsulfonyl fluoride, and 1 mM sodium orthovanadate), scraped off, incubated on ice for an additional 10 min, and centrifuged at 17,000 g for 30 min at 4° C. Protein samples (20 μg) were then electrophoresed on SDS-polyacrylamide gel electrophoresis (PAGE) gels and transferred to a nitrocellulose membrane, which was then blocked by incubation for 30 min at room temperature with 5% bovine serum albumin (BSA) in Tris-buffered saline with 0.1% Tween-20 (TBST). Immunoblotting was performed by overnight incubation at 4° C. with primary antibodies in TBST, followed by incubation for 1 h at room temperature with horseradish peroxidase (HRP)-conjugated secondary antibodies. Bound antibodies were measured using enhanced chemiluminescence (ECL) reagent (GE Healthcare, UK) and exposed to photographic film.
A Nuclear/Cytosol Fractionation Kit (Biovision, USA) was used to separate the cytosolic and nuclear fractions. […]

A549 cells [4] = assay: MTT cell viability assay; type: cell-based, human; conditions: 12, 24 and 48 h, up to 10 μM
Method: FIGS. 4A-4B show the inhibition of epithelial-to-mesenchymal transition protein expressions by CDK8 inhibitors in human alveolar epithelial cells. […] Cell lysates were subjected to a Western blot analysis using the indicated antibodies. Results are shown as the mean t SEM from three independent experiments. *p<0.05, and ***p<0.001 compared to the control group; #p<0.05, ##p<0.01, and ###p<0.001 compared to the TGF-β1-treated group. […] Cell viabilities were determined by an MTT assay. Results are shown as the mean t SEM of three independent experiments.
Cell cytotoxicity was measured by a colorimetric MTT assay. […] After various treatments, 1 mg/mL of MTT was added, and the plates were incubated at 37° C. for an additional 2 h. Then cells were pelleted and lysed with 10% sodium dodecylsulfate (SDS) with 0.01 M HCl, and the absorbance at 570 nm was measured on a microplate reader.

## CNC(=O)c1cc(Oc2ccc(NS(=O)(=O)c3ccc4c(c3)C(=C(C)C)C(=O)N4)c(F)c2)ccn1 [Compound k, 4-(3-Fluoro-4-((2-oxo-3-(propan-2-ylidene)indoline)-5-sulfonamido)phenoxy)-N-methylpicolinamide]
PC-3 cells [1]
  Snail expression: markedly inhibited
PC-3 cells [2]
  binding of CDK8 and p-Smad3 (Thr179), tumor immunoprecipitation: markedly inhibited
  body weight changes: no apparent body weight changes
  expression of EMT proteins, α-SMA, p-Smad3 (Thr179), active β-catenin, p-STAT1 Ser727 in tumor immunoblots: markedly inhibited
  interaction of CDK8 and MED12, tumor immunoprecipitation: did not affect
  tumor margin, H&E staining: distinct boundary
  vimentin, N-cadherin and Snail levels, IHC staining of tumors: significantly decreased
A549 cells [3]
  phosphorylation of p-Smad3 T179 and RNA Pol II pSer2/5: significantly reversed
A549 cells [4]
  cell viability: did not significantly change

From US20250109120A1, “INDOLINE DERIVATIVES FOR TREATMENT AND/OR PREVENTION OF TUMOR OR CELL PROLIFERATIVE AND FIBROSIS DISEASES” (NATIONAL TAIWAN UNIVERSITY, priority 2023, published 2025)
